Test results taken from PMC6208908, “Field template-based design and biological evaluation of new sphingosine kinase 1 inhibitors” (Breast Cancer Research and Treatment, 2018).
Marks after values point to notes of the source that are not given here. One block for each molecule: values may come before it.

Experiments:
[1] = target: recombinant SK1 (Homo sapiens, UniProt Q9NYA1); assay: SK1 activity assay, cell-free (recombinant SK1 extract, radiolabelling); type: biochemical; conditions: 1 µM compound, recombinant SK1 extract in excess, 1 µM ATP, 1 µM sphingosine, 1 h
Protocol: (§1) SK assay was performed using radiolabeling as previously described, in conditions favouring SK1 or SK2 activity as required.
The synthesised compounds were then screened for SK1 inhibition. Compounds SK-A to SK-F and SKI-II (commercial inhibitor of SK used as positive control with reported IC50 0.5 µM [14]) at 1 µM were incubated in the presence of recombinant SK1 extract (in excess), 1 µM of ATP, and exogenous 1 µM sphingosine for 1 h followed by measurement of SK1 activity.
(§2) Fig. 2 Inhibition of sphingosine kinase 1 in cell-free extract and in vitro. a 1 µM of compounds SK-A to SK-F and SKI-II (commercial inhibitor of SK used as a positive control) were incubated in the presence of recombinant SK1 extract (in excess), 1 µM of ATP, and 1 µM exogenous sphingosine for 1 h. b MDA-MB-231 cells were incubated with 1 µM of compounds SK-A to SK-F and SKI-II for 6 h. SK1 activity was measured as described in materials and methods. Columns, means of three independent experiments normalised to vehicle; bars, SEM. (ns, non-significant; *p < 0.05; **p < 0.01)
SK1 activity was determined in the presence of triton X-100 and SK2 activity was measured in the presence of high salt concentrations, conditions that favour SK1 and SK2, respectively. […] Km for SK1 was 6.97 ± 1.20 µM, Vmax 98 ± 4 µM/min/mg protein and Ki for SK-F 0.46 ± 0.1 µM. […] Some SK inhibitors such as SKI-II were previously shown to induce proteasomal degradation of SK1 [48, 49].

[2] = target: T1, endogenous SK1 in MDA-MB-231 cells (Homo sapiens, UniProt Q9NYA1); assay: SK1 activity in lysates of treated MDA-MB-231 cells; type: cell-based; conditions: 1 µM, 6 h
T1 construct: We treated MDA-MB-231 cells with 1 µM of compounds SK-A – SK-F and SKI-II as the positive control for 6 h; endogenous in cells; host or cells: MDA-MB-231
Protocol: After incubation, cells were washed with ice-cold phosphate-buffered saline (PBS) and harvested.
as §1, §2
Reportedly, among human tumour cell lines, the breast cancer cell line MDA-MB-231 expresses high levels of SK activity. We treated MDA-MB-231 cells with 1 µM of compounds SK-A – SK-F and SKI-II as the positive control for 6 h and analysed SK1 activity in the cell lysates using SK1 activity assay.

[3] = system: SK1 mRNA; assay: SK1 mRNA expression by qRT-PCR in MDA-MB-231 cells; type: cell-based, human; conditions: 1, 2, 5 and 10 µM, 24 h
Protocol: Isolation of total RNA from MDA-MB-231 cells was performed using the RNeasy Mini kit (Qiagen, Valencia, CA, USA) as per manufacturer’s instructions. RNA quantity and purity were measured using a NanoDrop ND-1000 Spectrophotometer (Thermo Fisher Scientific, Loughborough, UK). Reverse transcription was performed using precision nanoScript™ reverse transcription kit (PrimerDesign Ltd, Southampton, UK). qRT-PCR was done as already described. Ct values were exported and analysed using qbase software (Biogazelle NV, Zwijnaarde, Belgium).
Fig. 3 Effect of compounds SK-A to SK-F on SK1 mRNA levels. MDA-MB-231 cells were incubated with 1, 2, 5 and 10 µM of compounds SK-A to SK-F for 24 h. SK1 mRNA expression was measured by qRT-PCR. Columns, means of three independent experiments normalised to control; bars, SEM. (*p < 0.05; **p < 0.01)

[4] = system: SK1 protein; assay: SK1 protein level (Figure S9); type: cell-based
[5] = system: MDA-MB-231 cells; assay: MTT cell viability / proliferation assay; type: cell-based, human; conditions: 1, 2, 5 and 10 µM, up to 120 h
Protocol: Cellular viability was measured using the 3-(4,5-dimethylthiazol-2-yl)-2,5-diphenyltetrazolium bromide (MTT; 5 mg/ml) colorimetric assay as already described.
Fig. 4 Effect of compounds SK-A to SK-F on breast cancer cell viability. MDA-MB-231 cells were incubated with 1, 2, 5 and 10 µM of compounds SK-A to SK-F for up to 120 h. Cell proliferation was measured using MTT assay. Columns, means of three independent experiments normalised to control; bars, SEM. (*p < 0.05; **p < 0.01; ^§p < 0.001). IC50 levels for SK-F for 72, 96 and 120 h were 7, 4.5 and 3 µM, respectively

[6] = system: SK; design: method as in PMID 14522923; conditions: commercial inhibitor of SK, positive control; read-out: reported IC50; cited from earlier work
[7] = system: 4T1 breast cancer allografts; assay: 4T1 breast cancer allograft, tumour volume; type: in vivo, BALB/c nude mice; conditions: 5 mg/kg each drug i.p. twice a week for 2 weeks; control 468 mm^3
Protocol: Breast cancer allografts were established in 6–8-week-old BALB/c nude mice by injection of 10^6 4T1 cells into their mammary pad. Two weeks after implantation, mice were randomised into treatment groups (n = 6/group) and treated twice a week for 2 weeks with intraperitoneal injections of dimethyl sulfoxide (DMSO), 5 mg/kg DTX, 5 mg/kg SK-F, 5 mg/kg DTX + 5 mg/kg SK-F. One day after the last treatment, all mice were euthanized and blood was collected. Tumour long and short radii were measured using calipers and tumour volume (v) was calculated using the formula v = 4/3 πab^2 (a – long radius, b – short radius). Mice and individual organs were weighed and primary tumours were then processed for analysis of SK1 activity as described above. Full blood count and liver function test analysis was done in the Hammersmith hospital biochemical lab. […]
(§3) Fig. 5 Effect of compound SK-F on breast tumour growth and SK1 activity. […] Two weeks after implantation, mice were randomised into treatment groups (n = 6/group) and treated twice a week for 2 weeks with intraperitoneal injections of: DMSO, 5 mg/kg DTX, 5 mg/kg SK-F, 5 mg/kg DTX + 5 mg/kg SK-F. a Tumour volume in the different treatment groups of 4T1 breast cancer implanted in mouse mammary fat pad. b SK1 activity in tumours was measured using radiolabelling. […]

[8] = target: T2, tumour SK1 (Mus musculus, UniProt Q8CI15); assay: SK1 activity in 4T1 allograft tumours; type: in vivo, BALB/c nude mice; conditions: 5 mg/kg each drug i.p. twice a week for 2 weeks
T2 construct: primary tumours were then processed for analysis of SK1 activity as described above; from tissue; host or cells: 4T1 breast tumour allografts from BALB/c nude mice
Protocol: (§4) Breast cancer allografts were established in 6–8-week-old BALB/c nude mice by injection of 10^6 4T1 cells into their mammary pad. Two weeks after implantation, mice were randomised into treatment groups (n = 6/group) and treated twice a week for 2 weeks with intraperitoneal injections of dimethyl sulfoxide (DMSO), 5 mg/kg DTX, 5 mg/kg SK-F, 5 mg/kg DTX + 5 mg/kg SK-F. One day after the last treatment, all mice were euthanized and blood was collected. Tumour long and short radii were measured using calipers and tumour volume (v) was calculated using the formula v = 4/3 πab^2 (a – long radius, b – short radius). Mice and individual organs were weighed and primary tumours were then processed for analysis of SK1 activity as described above. Full blood count and liver function test analysis was done in the Hammersmith hospital biochemical lab.
as §3

[9] = Whole-body toxicity: body and organ weights, full blood count; type: in vivo, BALB/c nude mice; conditions: 5 mg/kg each drug i.p. twice a week for 2 weeks, 4T1 tumour-bearing mice
Protocol: as §4
Tumour-bearing mice were divided into four groups (n = 6) and injected with: DMSO, 5 mg/kg DTX, 5 mg/kg SK-F, 5 mg/kg DTX + 5 mg/kg SK-F. Two weeks after the tumour cells inoculation, we began intraperitoneal injections of drug preparations and continued these twice a week for two weeks. Based on our previous studies, we have chosen relatively smaller doses of SK-F and DTX in order to investigate their combined effect and potential chemosensitisation of breast tumours to taxane therapies. In the control group, tumours grew progressively and rapidly (Fig. 5a). […] Five mg/kg DTX has induced a significant reduction in tumour volume to 281 mm^3. The biggest reduction in tumour volume to 159 mm^3 was observed when DTX was combined with SK-F (Fig. 5a). […] We have further investigated the effects of the used treatments on mouse whole-body toxicity. DTX has reduced body and liver weight, while SK-F had no significant effect (Table 1). DTX has induced significant anaemia and leukopenia, while the effects of SK-F were very moderate. In all cases, the effects of combined therapy were similar to DTX alone (Table 1). Liver function test was performed as a surrogate marker for chemotherapy-induced liver damage (Fig. 6). […] The combination therapy had similar toxicity profile to DTX alone, while exerting higher antitumour efficacy (Fig. 5a).

[10] = Liver function tests in treated mice; type: in vivo, BALB/c nude mice; conditions: 5 mg/kg i.p. twice a week for 2 weeks
Protocol: as §4
Fig. 6 Liver function tests of mice treated with SK-F and docetaxel (DTX). Breast cancer allografts were established in BALB/c nude mice by injection of 4T1 cells into their mammary pad. Two weeks after implantation, mice were randomised into treatment groups (n = 6/group) and treated twice a week for two weeks with intraperitoneal injections of: DMSO, 5 mg/kg DTX, 5 mg/kg SK-F, 5 mg/kg DTX + 5 mg/kg SK-F. a Alanine transaminases (ALT). b Bilirubin. c Aspartate transaminase (AST). d Albumin. e Alkaline phosphatase (ALP). f Total protein. Columns, mean of n = 6 animals normalised to control; bars, SEM. (*p < 0.05; **p < 0.01)

T1 sequence (Q9NYA1 whole entry): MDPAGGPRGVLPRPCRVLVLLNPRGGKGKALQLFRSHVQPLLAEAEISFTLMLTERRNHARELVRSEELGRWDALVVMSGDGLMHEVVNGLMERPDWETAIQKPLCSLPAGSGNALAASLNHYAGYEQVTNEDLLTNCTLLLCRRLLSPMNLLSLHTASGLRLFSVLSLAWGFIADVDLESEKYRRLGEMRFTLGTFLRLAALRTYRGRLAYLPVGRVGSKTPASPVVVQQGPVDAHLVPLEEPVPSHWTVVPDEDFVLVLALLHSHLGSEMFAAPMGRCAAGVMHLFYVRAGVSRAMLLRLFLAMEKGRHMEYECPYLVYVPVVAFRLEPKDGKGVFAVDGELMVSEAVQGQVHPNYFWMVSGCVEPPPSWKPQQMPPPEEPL
Chain of recombinant SK1 (Q9NYA1 whole entry): as above
T2 sequence (Q8CI15 whole entry): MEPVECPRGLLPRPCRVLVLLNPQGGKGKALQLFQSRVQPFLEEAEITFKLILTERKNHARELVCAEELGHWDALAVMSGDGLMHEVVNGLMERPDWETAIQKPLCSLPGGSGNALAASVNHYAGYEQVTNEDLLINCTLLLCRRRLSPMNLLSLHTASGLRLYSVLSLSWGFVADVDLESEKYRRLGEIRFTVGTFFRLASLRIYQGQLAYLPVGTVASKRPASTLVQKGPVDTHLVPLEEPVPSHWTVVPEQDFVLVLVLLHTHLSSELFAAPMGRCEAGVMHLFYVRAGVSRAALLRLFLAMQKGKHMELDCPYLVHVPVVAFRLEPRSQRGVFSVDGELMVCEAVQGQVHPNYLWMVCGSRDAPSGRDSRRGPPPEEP

inhibition of SK1 activity in cell-free settings [1]: ineffective | SK1 activity in cells versus vehicle [2]: significantly decreased
SMILES: CCCCCCCCc1ccc(NC(=O)C2CCNCC2)cc1 [SK-C]
effect on SK1 mRNA expression [3]: reduction in SK1 mRNA | decrease in SK1 protein [4]: 75% | effect on MDA-MB-231 cancer cell proliferation [5]: highest effect

inhibition of SK1 activity in cell-free settings [1]: statistically significant inhibition | SK1 activity in cells versus vehicle [2]: significantly decreased
SMILES: CCCCCCCCc1ccc(NC(=O)c2cccc(Cl)c2)cc1 [SK-E]

SMILES: Oc1ccc(Nc2nc(-c3ccc(Cl)cc3)cs2)cc1 [SKI-II, reference compound]
effect on SK1 mRNA expression [3]: minimal effect | effect on SK1 protein [4]: significant decrease | IC50 [6]: 500 nM

tumour SK1 activity [8]: no effect | alkaline phosphatase (ALP) [10]: milder increase
SMILES: CC(=O)O[C@@]12CO[C@@H]1C[C@H](O)[C@@]1(C)C(=O)[C@H](O)C3=C(C)[C@@H](OC(=O)[C@H](O)[C@@H](NC(=O)OC(C)(C)C)c4ccccc4)C[C@@](O)([C@@H](OC(=O)c4ccccc4)[C@H]21)C3(C)C [DTX, docetaxel, reference compound]
tumour volume at the end of the study [7]: 281 mm^3 | Hb [9]: 65 ± 7 % of control ± SEM | WCC [9]: 54 ± 4 % of control ± SEM | Weight of Body [9]: 86 ± 7 % of control ± SEM | Weight of Kidney [9]: 97 ± 5.9^a % of control ± SEM | Weight of Liver [9]: 85.3 ± 11.4^a % of control ± SEM | Weight of Lungs [9]: 99.4 ± 4.a % of control ± SEM | Weight of Spleen [9]: 91.3 ± 15.4^a % of control ± SEM | alanine transaminases (ALT) [10]: significant increases | aspartate transaminase (AST) [10]: significant increases
